Patent US8815891B2, “Tricyclic derivative or pharmaceutically acceptable salts thereof, preparation method thereof, and pharmaceutical composition containing the same” (Je Il Pharmaceutical Co., Ltd., priority 2008, dated 2014)
pIC50: −log10 of the molar value. Where a name gives a salt, the structure may show the parent alone. Read-outs that look alike come from different tables or passages of the source.

Target: PARP-1 enzyme (Homo sapiens (Human), UniProt P09874)
Test: Poly(ADP-ribose)polymerase [PARP-1] enzyme inhibitory activity (Trevigen PARP Assay kit)
Type: biochemical
Procedure: The activity of the compounds according to the present invention to inhibit the PARP-1 enzyme was examined using a PARP Assay kit (4671-096-K) purchased from Trevigen. The assay was performed following a modified previously reported method by Lee et al [Methods Find, Exp. Clin. Pharmacol., 27, 617-622, 2005].
Histone was coated on 384-well plate, which is a small volume PS plate (784101) of Greiner Bio-One, and left at 25° C. for 2 hours. After that, the plate was rinsed four times with PBS (7.5 mM Na2HPO4, 2.5 mM NaH2PO4, 145 mM NaCl, pH 7.4), and in order to prevent non-specific reaction, the Strep-diluent (provided from kit of Trevigen) was added and left at 25° C. for one hour. After one hour, the plate was again rinsed with PBS four times, and the compounds of the Examples in various concentrations were put into reactant containing PARP-1 enzyme (0.12 unit/well), 2×PARP cocktail (1.95 mM NAD^+, 50 uM biotinylated NAD^+, and activated DNA in 50 mM Tris pH 8.0, 25 mM MgCl2) and allowed to react at 25° C. for 30 minutes. After 30 minutes, each well was rinsed with PBS four times, and in order to measure the amount of rybosylation by the PARP enzyme, strepavidin-linked peroxidase (Strep-HRP, 1:1000 diluted) was added and allowed to react at 37° C. for 30 minutes. The plate was rinsed with PBS four times, and TACS-Sapphire substrate was put and allowed to react at 25° C. for 10 minutes so that color reaction occurred. Finally, the reaction was terminated by the addition of 0.2 N HCl. The amount of histone ribosylation formed by PARP-1 enzyme was quantified at 450 nm using Wallac EnVision™ (PerkinElmer Oy, Turku, Finland).

[1] = read-out: PARP-1 Inhibitory activity IC50
[2] = PARP-1 enzyme, histone ribosylation, 450 nm, read-out: PARP-1 Inhibitory activity IC50

Chain of PARP-1 enzyme (P09874 whole entry): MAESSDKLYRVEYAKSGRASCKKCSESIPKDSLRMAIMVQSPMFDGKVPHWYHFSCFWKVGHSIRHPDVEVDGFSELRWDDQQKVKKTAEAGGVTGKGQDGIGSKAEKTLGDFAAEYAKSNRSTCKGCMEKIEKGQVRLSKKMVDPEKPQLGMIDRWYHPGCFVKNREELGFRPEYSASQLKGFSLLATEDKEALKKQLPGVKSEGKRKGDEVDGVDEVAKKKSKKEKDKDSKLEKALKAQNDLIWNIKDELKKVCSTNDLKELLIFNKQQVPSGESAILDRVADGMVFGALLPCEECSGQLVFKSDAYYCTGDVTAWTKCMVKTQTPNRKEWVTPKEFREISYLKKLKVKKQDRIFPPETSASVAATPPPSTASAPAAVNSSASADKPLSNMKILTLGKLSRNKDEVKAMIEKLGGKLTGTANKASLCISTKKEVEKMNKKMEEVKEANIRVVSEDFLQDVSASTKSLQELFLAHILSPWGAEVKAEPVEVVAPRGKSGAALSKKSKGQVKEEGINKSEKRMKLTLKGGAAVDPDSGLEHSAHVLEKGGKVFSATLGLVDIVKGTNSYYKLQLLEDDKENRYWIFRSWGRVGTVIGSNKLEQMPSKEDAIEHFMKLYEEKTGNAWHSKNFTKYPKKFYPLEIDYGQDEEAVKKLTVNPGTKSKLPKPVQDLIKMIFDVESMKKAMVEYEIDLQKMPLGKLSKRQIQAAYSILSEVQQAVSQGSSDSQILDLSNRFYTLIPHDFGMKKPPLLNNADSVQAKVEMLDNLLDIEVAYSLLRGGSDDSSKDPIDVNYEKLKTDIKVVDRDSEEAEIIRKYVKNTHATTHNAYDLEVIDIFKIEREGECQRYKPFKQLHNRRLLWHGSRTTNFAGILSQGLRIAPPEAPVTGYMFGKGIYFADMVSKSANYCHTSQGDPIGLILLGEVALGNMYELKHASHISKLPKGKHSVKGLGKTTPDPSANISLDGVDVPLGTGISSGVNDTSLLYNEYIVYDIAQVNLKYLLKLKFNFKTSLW

| Structure (SMILES) | pIC50 [1] | also measured |
| --- | --- | --- |
| O=c1[nH]c2cc(CN3CCOCC3)ccc2c2c1CCCN2 [Example 49, 8-(Morpholinomethyl)-1,2,3,4-tetrahydrobenzo[h][1,6]naphthyridine-5(6H)-one dihydrochloride] | 6.21 | – |
| CN(C)Cc1ccc2[nH]c(=O)c3c(c2c1)NCCC3 [Example 50, 9-[(Dimethylamino)methyl]-1,2,3,4-tetrahydrobenzo[h][1,6]naphthyridine-5(6H)-one dihydrochloride] | 6.49 | – |
| CN(Cc1ccccc1)Cc1ccc2c3c(c(=O)[nH]c2c1)CCCN3 [Example 51, 8-{[Benzyl(methyl)amino]methyl}-1,2,3,4-tetrahydrobenzo[h][1,6]naphthyridine-5(6H)-one dihydrochloride] | 6.03 | – |
| CN(C)CCN(C)Cc1ccc2c3c(c(=O)[nH]c2c1)CCCN3 [Example 54, 8-{[(2-(Dimethylaminoethyl)(methyl)amino]methyl}-1,2,3,4-tetrahydrobenzo[h][1,6]naphthyridine-5(6H)-one trihydrochloride] | – | pIC50 [2]: 6.03 |
| CN1CCN(Cc2ccc3c4c(c(=O)[nH]c3c2)CCCN4)CC1 [Example 55, 8-[(4-Methylpiperazine-1-yl)methyl]-1,2,3,4-tetrahydrobenzo[h][1,6]naphthyridine-5(6H)-one trihydrochloride] | 5.76 | – |
| CCOC(=O)CCN(C)Cc1ccc2c3c(c(=O)[nH]c2c1)CCCN3 [Example 57, Ethyl-3-{methyl[(5-oxo-1,2,3,4,5,6-hexahydrobenzo[h][1,6]naphthyridine-8-yl)methyl]amino}propanoate dihydrochloride] | 6.32 | – |
| CN(CCC(=O)O)Cc1ccc2c3c(c(=O)[nH]c2c1)CCCN3 [Example 58, 3-{Methyl[(5-oxo-1,2,3,4,5,6-hexahydrobenzo[h][1,6]naphthyridine-8-yl)methyl]amino}propanoic acid dihydrochloride] | 6.04 | – |
| CC(C)N(C)Cc1ccc2c3c(c(=O)[nH]c2c1)CCCN3 [Example 59, 8-{[Isopropyl(methyl)amino]methyl}-1,2,3,4-tetrahydrobenzo[h][1,6]naphthyridine-5(6H)-one dihydrochloride] | 6.72 | – |
| COCCN(C)Cc1ccc2c3c(c(=O)[nH]c2c1)CCCN3 [Example 60, 8-{[(2-Methoxyethyl)(methyl)amino]methyl}-1,2,3,4-tetrahydrobenzo[h][1,6]naphthyridine-5(6H)-one dihydrochloride] | 6.92 | – |
| O=c1[nH]c2cc(CNCC(F)(F)F)ccc2c2c1CCCN2 [Example 62, 8-[(2,2,2-Trifuloroethylamino)methyl]-1,2,3,4-tetrahydrobenzo[h][1,6]naphthyridine-5(6H)-one dihydrochloride] | – | pIC50 [2]: < 5.40 |
| N#CCNCc1ccc2c3c(c(=O)[nH]c2c1)CCCN3 [Example 63, 2-[(5-Oxo-1,2,3,4,5,6-hexahydrobenzo[h][1,6]naphthyridine-8-yl)methylamino]acetonitrile dihydrochloride] | 5.99 | – |
| O=c1[nH]c2cc(Cn3ccnc3)ccc2c2c1CCCN2 [Example 64, 8-[(1H-Imidazole-1-yl)methyl]-1,2,3,4-tetrahydrobenzo[h][1,6]naphthyridine-5(6H)-one hydrochloride] | – | pIC50 [2]: 6.27 |
| O=c1[nH]c2cc(Cn3cccc3)ccc2c2c1CCCN2 [Example 65, 8-[(1H-Pyrrole-1-yl)methyl]-1,2,3,4-tetrahydrobenzo[h][1,6]naphthyridine-5(6H)-one hydrochloride] | – | pIC50 [2]: 5.81 |
| O=c1[nH]c2cc(CN3CCCC3)ccc2c2c1CCCN2 [Example 67, 8-(Pyrrolidine-1-ylmethyl)-1,2,3,4-tetrahydrobenzo[h][1,6]naphthyridine-5(6H)-one dihydrochloride] | – | pIC50 [2]: > 6.00; pIC50 (dihydrochloride, read-out: PARP-1 Inhibitory activity IC50): 6.12 |
| CCN(CC)Cc1ccc2c3c(c(=O)[nH]c2c1)CCCN3C [Example 68, 8-[(Diethylamino)methyl]-1-methyl-1,2,3,4-tetrahydrobenzo[h][1,6]naphthyridine-5(6H)-one dihydrochloride] | 5.92 | – |
| CN1CCCc2c1c1ccc(CN3CCCCC3)cc1[nH]c2=O [Example 69, 1-Methyl-8-(piperidine-1-ylmethyl)-1,2,3,4-tetrahydrobenzo[h][1,6]naphthyridine-5(6H)-one dihydrochloride] | – | pIC50 [2]: < 5.40 |

| Structure (SMILES) | pIC50 [1] | also measured |
| --- | --- | --- |
| CN1CCCc2c1c1ccc(CN3CCOCC3)cc1[nH]c2=O [Example 70, 1-Methyl-8-(morpholinomethyl)-1,2,3,4-tetrahydrobenzo[h][1,6]naphthyridine-5(6H)-one dihydrochloride] | 5.96 | – |
| CCN(C)Cc1ccc2c3c(c(=O)[nH]c2c1)CCCN3C [Example 71, 8-{[Ethyl(methyl)amino]methyl}-1-methyl-1,2,3,4-tetrahydrobenzo[h][1,6]naphthyridine-5(6H)-one dihydrochloride] | 5.52 | – |
| CCNCc1cc(OC)c2c3c(c(=O)[nH]c2c1)CCCN3 [Example 75, 8-[(Ethylamino)methyl]-10-methoxy-1,2,3,4-tetrahydrobenzo[h][1,6]naphthyridine-5(6H)-one dihydrochloride] | 7.30 | – |
| CCN(C)Cc1cc(OC)c2c3c(c(=O)[nH]c2c1)CCCN3 [Example 76, 8-{[Ethyl(methyl)amino]methyl}-10-methoxy-1,2,3,4-tetrahydrobenzo[h][1,6]naphthyridine-5(6H)-one] | – | pIC50 [2]: 7.30 |
| COc1cc(CN2CCCC2)cc2[nH]c(=O)c3c(c12)NCCC3 [Example 77, 10-Methoxy-8-(pyrrolidine-1-ylmethyl)-1,2,3,4-tetrahydrobenzo[h][1,6]naphthyridine-5(6H)-one dihydrochloride] | 7.30 | – |
| COc1cc(CN2CCC(=O)CC2)cc2[nH]c(=O)c3c(c12)NCCC3 [Example 78, 10-Methoxy-8-[(4-oxopiperidine-1-yl)methyl]-1,2,3,4-tetrahydrobenzo[h][1,6]naphthyridine-5(6H)-one dihydrochloride] | 6.96 | – |
| COc1cc(CN2CCC(=NO)CC2)cc2[nH]c(=O)c3c(c12)NCCC3 [Example 79, 8-{[4-(Hydroxyimino)piperidine-1-yl]methyl}-10-methoxy-1,2,3,4-tetrahydrobenzo[h][1,6]naphthyridine-5(6H)-one trihydrochloride] | – | pIC50: 6.74 |
| CON=C1CCN(Cc2cc(OC)c3c4c(c(=O)[nH]c3c2)CCCN4)CC1 [Example 80, 10-Methoxy-8-[(4-(methoxyimino)piperidine-1-yl)methyl]-1,2,3,4-tetrahydrobenzo[h][1,6]naphthyridine-5(6H)-one trihydrochloride] | 6.85 | – |
| COCCN(C)Cc1cc(OC)c2c3c(c(=O)[nH]c2c1)CCCN3 [Example 81, 10-Methoxy-8-{[(2-methoxyethyl)(methyl)amino]methyl}-1,2,3,4-tetrahydrobenzo[h][1,6]naphthyridine-5(6H)-one dihydrochloride] | 6.96 | – |
| COc1cc(CN2CC=CC2)cc2[nH]c(=O)c3c(c12)NCCC3 [Example 82, 8-[(2,5-Dihydro-1H-pyrrole-1-yl)methyl]-10-methoxy-1,2,3,4-tetrahydrobenzo[h][1,6]naphthyridine-5(6H)-one dihydrochloride] | 7.22 | – |
| COc1cc(CN(C)CCOC(C)C)cc2[nH]c(=O)c3c(c12)NCCC3 [Example 83, 8-{[(2-Isopropoxyethyl)(methyl)amino]methyl}-10-methoxy-1,2,3,4-tetrahydrobenzo[h][1,6]naphthyridine-5(6H)-one dihydrochloride] | 6.49 | – |
| COc1cc(CN2CCCCC2)cc2[nH]c(=O)c3c(c12)NCCC3 [Example 84, 10-Methoxy-8-(piperidine-1-ylmethyl)-1,2,3,4-tetrahydrobenzo[h][1,6]naphthyridine-5(6H)-one dihydrochloride] | 6.82 | – |
| COc1cc(CN(C)CCCl)cc2[nH]c(=O)c3c(c12)NCCC3 [Example 85, 8-{[(2-Chloroethyl)(methyl)amino]methyl}-10-methoxy-1,2,3,4-tetrahydrobenzo[h][1,6]naphthyridine-5(6H)-one dihydrochloride] | – | pIC50 [2]: 6.74 |
| CCN(CC)Cc1cc(OC)c2c3c(c(=O)[nH]c2c1)CCCN3 [Example 86, 8-[(Diethylamino)methyl]-10-methoxy-1,2,3,4-tetrahydrobenzo[h][1,6]naphthyridine-5(6H)-one dihydrochloride] | 6.96 | – |
| COc1cc(CNC(C)C)cc2[nH]c(=O)c3c(c12)NCCC3 [Example 88, 8-[(Isopropylamino)methyl]-10-methoxy-1,2,3,4-tetrahydrobenzo[h][1,6]naphthyridine-5 (6H)-one dihydrochloride] | 6.96 | – |
| COc1cc(CNC2CCCC2)cc2[nH]c(=O)c3c(c12)NCCC3 [Example 89, 8-[(Cyclopentylamino)methyl]-10-methoxy-1,2,3,4-tetrahydrobenzo[h][1,6]naphthyridine-5(6H)-one dihydrochloride] | 6.57 | – |
